ChEMBL document CHEMBL5634087, “Novel 5-aminopyrazoles endowed with anti-angiogenetic properties: Design, synthesis and biological evaluation” (Eur J Med Chem, 2023)
The source made the active and inactive calls. The calls are words filed in the database; no cut-off is given here.

Columns and labels:
HFF [1] = assay: Antiangiogenic activity in confluent HFF cells assessed as relative migration rate at 1 uM incubated for 48 hrs by Hoechst 33342 staining based wound healing assay relative to control; format: functional, Homo sapiens
HUVEC [2] = assay: Antiangiogenic activity in confluent VEGF stimulated HUVEC cells assessed as inhibition of cell migration at 20 uM incubated for 24 to 48 hrs by Hoechst 33342 staining based wound healing assay; format: functional; conditions: Homo sapiens, time 24-48 hrs
[3] = biological target: RAC-alpha serine/threonine-protein kinase (Homo sapiens) (UniProt P31749); assay: Inhibition of AKT phosphorylation in serum starved VEGF stimulated HUVEC cells at 20 uM preincubated for 10 mins followed by VEGF addition and measured after 20 mins by Western blotting analysis relative to control; format: cell-based; conditions: time 30.0 min
HFF [4] = assay: Antiangiogenic activity in confluent HFF cells assessed as relative migration rate at 1 uM incubated for 24 hrs by Hoechst 33342 staining based wound healing assay relative to control; format: functional, Homo sapiens
[5] = biological target: RAC-alpha serine/threonine-protein kinase (Homo sapiens) (UniProt P31749); assay: Inhibition of AKT phosphorylation in serum starved bFGF stimulated HFF cells at 20 uM preincubated for 10 mins followed by bFGF addition and measured after 20 mins by Western blotting analysis; format: cell-based; conditions: time 30.0 min
[6] = biological target: Mitogen-activated protein kinase; ERK1/ERK2 (Homo sapiens) (UniProt P27361+P28482); assay: Inhibition of ERK1/2 phosphorylation in serum starved bFGF stimulated HFF cells assessed as residual phosphorylated ERK1/2 level at 20 uM preincubated for 10 mins followed by bFGF addition and measured after 20 mins by Western blotting analysis relative to control; format: cell-based; conditions: time 30.0 min
A549 = assay: Antiproliferative activity against human A549 cells assessed as growth rate at 10 uM incubated for 48 hrs by MTT assay relative to control; format: functional; conditions: read-out: Activity
HeLa = assay: Antiproliferative activity against human HeLa cells assessed as growth rate at 10 uM incubated for 48 hrs by MTT assay relative to control; format: functional; conditions: read-out: Activity
[7] = Cytotoxicity against human GM06114 cells assessed as growth rate at 10 uM incubated for 48 hrs by MTT assay relative to control; format: toxicity, cell-based; conditions: gm06114, 48 h
SK-OV-3 = assay: Antiproliferative activity against human SK-OV-3 cells assessed as growth rate at 10 uM incubated for 48 hrs by MTT assay relative to control; format: functional; conditions: read-out: Activity
HFF [8] = assay: Antiangiogenic activity in confluent HFF cells assessed as inhibition of cell migration at 20 uM incubated for 24 to 48 hrs by Hoechst 33342 staining based wound healing assay; format: functional; conditions: Homo sapiens, time 24-48 hrs
HUVEC [9] = assay: Antiangiogenic activity in confluent VEGF stimulated HUVEC cells assessed as inhibition of cell migration at 20 uM incubated for 48 hrs by Hoechst 33342 staining based wound healing assay; format: functional; conditions: Homo sapiens
SK-MEL-28 = assay: Antiproliferative activity against human SK-MEL-28 cells assessed as growth rate at 10 uM incubated for 48 hrs by MTT assay relative to control; format: functional; conditions: read-out: Activity
HUVEC [10] = assay: Antiangiogenic activity in confluent VEGF stimulated HUVEC cells assessed as relative cell migration rate at 20 uM incubated for 24 hrs by Hoechst 33342 staining based wound healing assay relative to control; format: functional, Homo sapiens
HepG2 = assay: Antiproliferative activity against human HepG2 cells assessed as growth rate at 10 uM incubated for 48 hrs by MTT assay relative to control; format: functional; conditions: read-out: Activity
MDA-MB-231 = assay: Antiproliferative activity against human MDA-MB-231 cells assessed as growth rate at 10 uM incubated for 48 hrs by MTT assay relative to control; format: functional; conditions: read-out: Activity
SK-BR-3 = assay: Antiproliferative activity against human SK-BR-3 cells assessed as growth rate at 10 uM incubated for 48 hrs by MTT assay relative to control; format: functional; conditions: read-out: Activity
MCF7 = assay: Antiproliferative activity against human MCF7 cells assessed as growth rate at 10 uM incubated for 48 hrs by MTT assay relative to control; format: functional; conditions: read-out: Activity
HUVEC [11] = assay: Antiangiogenic activity in confluent VEGF stimulated HUVEC cells assessed as relative cell migration rate at 20 uM incubated for 48 hrs by Hoechst 33342 staining based wound healing assay relative to control; format: functional, Homo sapiens
[12] = biological target: RAC-alpha serine/threonine-protein kinase (Homo sapiens) (UniProt P31749); assay: Inhibition of AKT phosphorylation in serum starved VEGF stimulated HUVEC cells at 20 uM preincubated for 10 mins followed by VEGF addition and measured after 20 mins by Western blotting analysis; format: cell-based; conditions: time 30.0 min

Mitogen-activated protein kinase; ERK1/ERK2 (Homo sapiens), sequence (P27361 whole entry, looked up): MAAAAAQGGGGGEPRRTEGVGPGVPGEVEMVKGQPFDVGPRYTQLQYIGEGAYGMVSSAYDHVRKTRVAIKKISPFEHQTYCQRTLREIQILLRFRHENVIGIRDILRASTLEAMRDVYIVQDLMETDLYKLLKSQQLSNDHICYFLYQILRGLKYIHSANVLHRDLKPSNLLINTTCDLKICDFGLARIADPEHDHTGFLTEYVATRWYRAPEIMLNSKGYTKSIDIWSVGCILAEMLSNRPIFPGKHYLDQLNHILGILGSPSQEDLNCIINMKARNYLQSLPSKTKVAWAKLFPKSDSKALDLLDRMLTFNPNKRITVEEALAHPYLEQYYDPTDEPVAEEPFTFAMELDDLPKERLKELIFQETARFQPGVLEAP
Mitogen-activated protein kinase; ERK1/ERK2 (Homo sapiens), sequence (P28482 whole entry, looked up): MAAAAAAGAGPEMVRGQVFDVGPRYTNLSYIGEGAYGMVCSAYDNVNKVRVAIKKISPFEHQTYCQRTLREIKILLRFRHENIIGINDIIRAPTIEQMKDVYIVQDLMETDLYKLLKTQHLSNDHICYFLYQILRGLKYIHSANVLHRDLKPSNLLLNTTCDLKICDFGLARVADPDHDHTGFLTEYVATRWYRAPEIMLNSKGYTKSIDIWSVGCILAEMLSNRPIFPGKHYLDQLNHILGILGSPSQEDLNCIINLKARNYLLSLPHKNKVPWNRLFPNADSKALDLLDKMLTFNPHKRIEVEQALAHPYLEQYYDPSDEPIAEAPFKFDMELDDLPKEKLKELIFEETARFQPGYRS
RAC-alpha serine/threonine-protein kinase (Homo sapiens), sequence (P31749 whole entry): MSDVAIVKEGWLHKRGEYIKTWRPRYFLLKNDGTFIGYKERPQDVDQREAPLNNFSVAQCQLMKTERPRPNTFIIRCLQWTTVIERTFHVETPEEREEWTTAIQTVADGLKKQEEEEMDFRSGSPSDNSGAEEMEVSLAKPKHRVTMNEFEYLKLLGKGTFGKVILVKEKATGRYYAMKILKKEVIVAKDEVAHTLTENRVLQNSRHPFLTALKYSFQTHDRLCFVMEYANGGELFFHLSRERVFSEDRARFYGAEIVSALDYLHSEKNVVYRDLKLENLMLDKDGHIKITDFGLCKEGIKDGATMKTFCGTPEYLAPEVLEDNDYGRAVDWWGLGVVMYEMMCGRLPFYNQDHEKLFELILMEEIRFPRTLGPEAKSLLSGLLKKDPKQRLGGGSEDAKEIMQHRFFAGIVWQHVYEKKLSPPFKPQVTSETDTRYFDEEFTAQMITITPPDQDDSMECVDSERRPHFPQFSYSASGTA

Structure (SMILES)	Activity (HFF [1])	Activity (HUVEC [2])	inhibition [3]	Activity (HFF [4])	inhibition [5]	Activity [6]	growth at 10 µM (A549)	growth at 10 µM (HeLa)	Activity [7]	growth at 10 µM (SK-OV-3)	Activity (HFF [8])	Activity (HUVEC [9])	growth at 10 µM (SK-MEL-28)	Activity (HUVEC [10])	growth at 10 µM (HepG2)	growth at 10 µM (MDA-MB-231)	growth at 10 µM (SK-BR-3)	growth at 10 µM (MCF7)	Activity (HUVEC [11])	inhibition [12]
Cc1nc(Nc2ncc(C(=O)Nc3c(C)cccc3Cl)s2)cc(N2CCN(CCO)CC2)n1 [DASATINIB ANHYDROUS]	27.32%	inactive	24.1%	27.31%																
CCCCC(O)Cn1nc(Nc2ccccc2Cl)c(C(=O)OCC)c1N (stereo not given)					Active	> 70%	138%	104%	92.72%	125%	Active	inactive	109%	47.74%	102%	126%	103%	140%		
CCOC(=O)c1c(Nc2ccc(Cl)cc2)nn(CC(OC(=O)Nc2cccc(C(F)(F)F)c2)c2ccccc2)c1N (stereo not given)						> 70%	89.2%	65.9%	131.1%	122%	inactive		112%	>50%	120%	121%	124%	128%	>50%	
CCCCC(O)Cn1nc(Nc2ccc(Cl)cc2)c(C(=O)OCC)c1N (stereo not given)		inactive			inactive	> 70%	130%	104%	93.96%	132%	Active		115%		108%	137%	114%	145%		inactive
